The nature of data set [1]: PGRMC1 binding assay control: non-specific [^3H] ligand association with membranes from untransformed bacteria (−PGRMC1). On the set-up: species or system E. coli. As to conditions: for Q1 / Q2: two binding site model; for Q1: number of non-specific sites; for Q2: number of specific sites. On the procedure:
IPTG-induced cells were harvested by centrifugation (5,000 rpm; 5 min) and washed with ice-cold H2O. The pellet was resuspended in 5 mL buffer A (50 mM Tris-HCl pH 7.5, 150 mM NaCl, 0.1% NP40, and 10% glycerol) with 5-10 mg lysozyme, and incubated on ice for 30 min. The cells were then disrupted by three bursts of sonication (45 sec) at high intensity with a 45 sec cooling period between bursts. Soluble material was removed by centrifugation (15,000 rpm, 10 min) and the pellet resuspended in 5 mL buffer A. His10-PGRMC1 (His10 disclosed as SEQ ID NO: 14) was confirmed to be present in purified membranes by SDS-PAGE followed by Coomassie stain and western blot using anti-tetra-His (SEQ ID NO: 15) antibody (Qiagen). Total protein in the His10-PGRMC1 (His10 disclosed as SEQ ID NO: 14) transformed and untransformed purified membranes was determined by the Bradford method and membranes were normalized to 10 μg/μL total protein (diluted with buffer A). Purified membranes were then aliquoted and stored frozen until use.
The standard 10 μL binding reaction contained 10 μp purified membranes (total protein) and 10 μM [^3H] progesterone or [^3H] cholesterol (3,000-5,000 cpm) in buffer A: 20% ethanol. Stock solutions (100 μM) of [^3H] cholesterol and [^3H] progesterone containing ˜4×10^4 cpm/μL, were prepared in 95% ethanol. Reactions were prepared in clear 2.0 mL microcentrifuge tubes on ice. To start the reaction, the microfuge tube was briefly mixed (vortex) and placed at 37° C. Following a 10 to 30 min incubation, the tubes were centrifuged in a microfuge (˜13,000 rpm) for 2 min. The supernatant was carefully removed and the pellet was washed with an additional 10 μL water. After a second round of centrifugation (2 min; 13,000 rpm), the resulting supernatant was combined with the first and the pellet was resuspended in 20 μL H2O, Scintillation fluid (700 μL Wallac Optiflour) was added to each fraction and the fractions were mixed extensively. The fractions were then counted in a multi-well scintillation counter (Wallac Microbeta Triluxmax, Waltham, Mass.) for 30 seconds each. Binding are reported as μ/moles of ligand bound per mg of membrane protein. His10-PGRMC1 (His10 disclosed as SEQ ID NO: 14)-specific binding is reported as the difference in binding between transformed and untransformed bacteria. Experimental deviations from the standard assay conditions are noted in individual figure legends.
In order to better understand PGRMC1's biological function and to study ligand binding, an in vitro binding assay was developed. E. coli BL21 codon plus (RIPL) cells were transformed with a vector encoding PGRMC1 that was epitope tagged with 10 histidine (SEQ ID NO: 14) residues at the NH2-terminus. Untransformed BL21 cells were used as the control. A purification procedure was performed to remove soluble proteins and cell components from the transformed (+PGRMC1) and untransformed (−PGRMC1) bacterial membranes. The resulting purified membranes were confirmed for the presence and absence of His10-PGRMC1 (His10 disclosed as SEQ ID NO: 14) respectively by Coomassie stain and western blot using anti-His antibody. The membranes with [^3H] progesterone or [^3H] cholesterol were then incubated. The membranes were spun out, washed, and counted in a scintillation counter. His10-PGRMC1 (His10 disclosed as SEQ ID NO: 14) specific binding was then determined by subtracting total membrane-associated ligand (nmols/mg protein) in membranes prepared from untransformed bacteria (−PGRMC1) with membranes purified from bacteria expressing His10-PGRMC1 (His10 disclosed as SEQ ID NO: 14) (+PGRMC1).
To further explore the nature of ligand binding to His10-PGRMC1 (His10 disclosed as SEQ ID NO: 14), several in silico modeling experiments fitting the saturation data to different models of ligand binding were performed. The best statistical fit of the data was to a two binding site model. […]

For data set [2], the target named is T1, His10-PGRMC1 (Homo sapiens, UniProt O00264).
T1 construct: a product containing the full length coding region of PGMRC1 flanked by Nde1 and BamHI restriction sites; made in house; host or cells: E. coli BL21 (DE3) / BL21 codon plus (RIPL); purified bacterial membranes
In words: Coupled time-course proteolysis experiment (protease-sensitive vs protease-resistant specific binding). The note with it: trypsin after ligand incubation, FIG. 10. An excerpt: (§1) Since data from the competition assays indicate that progesterone and cholesterol bind to the same site within His10-PGRMC1 (His10 disclosed as SEQ ID NO: 14), the reason for the observation of more cholesterol binding in our assays was examined. There appear to be two plausible explanations: one possibility is that there are more cholesterol-specific binding sites on His10-PGRMC1 (His10 disclosed as SEQ ID NO: 14) that comprise the increase in observed binding; the other is that His10-PGRMC1 (His10 disclosed as SEQ ID NO: 14) is catalyzing the incorporation of cholesterol into the membrane. To distinguish between these possibilities, a coupled time-course proteolysis experiment was performed. In these studies, [^3H] progesterone and [^3H] cholesterol were incubated with membranes ±His10-PGRMC1 (His10 disclosed as SEQ ID NO: 14) for increasing time periods. At the end of the incubation period, the membranes were isolated, washed, and resuspended in a trypsin solution to remove all His10-PGRMC1 (His10 disclosed as SEQ ID NO: 14) protein. In this manner any ligand specifically bound to His10-PGRMC1 (His10 disclosed as SEQ ID NO: 14) would be protease-sensitive and be removed from the membrane fraction. Any ligand incorporated into the membrane or other protected site will be protease-resistant and remain in the membrane fraction. After proteolysis the reactions were separated by centrifugation into protease-resistant (membrane) and protease-sensitive (supernatant) fractions and ligand amount determined. […] Total specific binding of progesterone (FIG. 10A, diamonds) increasing over time and occurring at levels consistent with previous studies was observed. […] It is important to note that this ligand incorporation reaction is specific to bound cholesterol as it was observed that all bound progesterone was protein associated. Collectively our findings describe an important and previously uncharacterized function for PGRMC1 and sterol binding proteins in general, that of catalyzing the incorporation of cholesterol into membranes.

The test system of data set [3] is His10-PGRMC1. The description is as above. On the set-up: species or system human. The note with it: trypsin after ligand incubation, FIG. 10.
Text: as §1

Data set [4] in a line: Solubility of ligand in the binding assay. It is filed as physicochemical. As to conditions: binding assay buffer; read-out: concentration above which only partially soluble in the assay. On the procedure:
Next, the question of whether binding of ligand to His10-PGRMC1 (His10 disclosed as SEQ ID NO: 14) is saturable was examined. […] Ligand binding time was held constant while increasing the ligand concentration by half logs in each experiment. The ligand concentration spanned four orders of magnitude from lowest to highest. […] Cholesterol was only partially soluble in our assay at concentrations greater than 3 mM so testing saturation at higher concentrations was unable to be performed.

Setting [5] is: first category of sites, present in both +PGRMC1 and −PGRMC1 membranes, read-out: Kd of non-specific binding.
Where [6] appears, read: two binding site model fit of saturation data, −PGRMC1 membranes, non-specific site, read-out: Kd1.

Read-outs that look alike come from different tables or passages of the source. Some results are limits rather than exact numbers.

T1 sequence (O00264 whole entry): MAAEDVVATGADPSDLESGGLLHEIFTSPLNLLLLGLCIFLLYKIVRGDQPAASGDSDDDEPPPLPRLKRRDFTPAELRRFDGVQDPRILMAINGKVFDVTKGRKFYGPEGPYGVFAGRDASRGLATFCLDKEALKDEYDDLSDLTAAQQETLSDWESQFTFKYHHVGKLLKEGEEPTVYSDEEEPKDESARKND

Turning to `CC(C)CCC[C@@H](C)[C@H]1CC[C@H]2[C@@H]3CC=C4C[C@@H](O)CC[C@]4(C)[C@H]3CC[C@]12C` [Cholesterol, cholesterol], the Kd was approximately 1 mM in data set [1] (setting [5]) and 0.9 mM in data set [1] (setting [6]). Further, in data set [1] (−PGRMC1 membranes), the Q1 is 8.4 × 10^9 Sites. Further, the Q2 in data set [1] (−PGRMC1 membranes) is listed as 0 Sites. For the same compound, in data set [1] (−PGRMC1 membranes, Protease −), the “Membrane-Associated [^3H] Ligand” value amounted to 3.7 ± 0.3 nmoles/mg protein. For the same compound, the “protease-sensitive (protein-associated) specific binding” value on His10-PGRMC1 [2] was “decreased over time”. In the data set on His10-PGRMC1 [3], the “protease-resistant (membrane-associated) specific binding” value is “increasingly protease-resistant”. In data set [4], the solubility was more than 3000 µM.

Consider `CC(=O)[C@H]1CC[C@H]2[C@@H]3CCC4=CC(=O)CC[C@]4(C)[C@H]3CC[C@]12C` [Progesterone, progesterone], for which the results for the Kd in data set [1] (setting [5]) and in data set [1] (setting [6]) were approximately 1 mM and 1.7 mM, respectively. Moreover, the Q1 in data set [1] (−PGRMC1 membranes) was 8.4 × 10^9 Sites. Further, the Q2 in data set [1] (−PGRMC1 membranes) was determined as 0 Sites. For the same compound, the “Membrane-Associated [^3H] Ligand” value in data set [1] (−PGRMC1 membranes, Protease + (trypsin before ligand binding)) is on record as 1.6 ± 0.2 nmoles/mg protein; in data set [1] (−PGRMC1 membranes, Protease −), 2.4 ± 0.1 nmoles/mg protein. In addition, on His10-PGRMC1 [2], the “protease-sensitive (protein-associated) specific binding” value is listed as “essentially all”. In addition, the “protease-resistant (membrane-associated) specific binding” value in the data set with His10-PGRMC1 [3] was “virtually no”.

The record behind these values is patent US8187821B2, “Compositions and methods for the modulation of PGRMC1” (University of Utah Research Foundation, priority 2008, dated 2012).
